Assay results from patent publication US4381305A, “Ethylenediamine derivatives and pharmaceutical compositions containing same” (Simes S.p.A., priority 1980, dated 1983).

Each molecule was assayed on rabbit's isolated aorta (assay: KCl-induced contraction of the rabbit's isolated aorta (antispasmodic activity on the smooth muscles)). Conditions: Oryctolagus cuniculus, Godfraind method, read-out: ED50 (the source's name).
Type: cell-based
Description: The compounds of the present invention are endowed with antispasmodic activity on the smooth muscles with has been established with the test of KCl--induced contraction of the rabbit's isolated aorta according to Godfraind and coll. (Arch. Int. Pharmacodyn., 172, 235, 1968).

Row | SMILES | IC50 [µg/mL]
1 | COc1cc(CN(C)CCN(C)CCC(c2ccccc2)c2ccccc2)cc(OC)c1OC [N1,N2-dimethyl-N1-(3,4,5-trimethoxybenzyl)-N2-(3,3-diphenylpropyl)-ethylenediamine dimaleate] | 1.3
2 | COc1ccc(C(O)(CCN(C)CCN(C)Cc2ccccc2)c2ccc(OC)cc2)cc1 [N1,N2-dimethyl-N1-benzyl-N2-(3,3-di-p-methoxyphenyl-3-hydroxypropyl)-ethylenediamine dimaleate] | 5.2
3 | CN(CC=C(c1ccccc1)c1ccccc1)CCN(C)Cc1ccccc1 [N1,N2-dimethyl-N1-benzyl-N2-(3,3-diphenylallyl)-ethylenediamine dimaleate] | 2.1
4 | CN(CCC(c1ccccc1)c1ccccc1)CCN(C)Cc1ccccc1 [N1,N2-dimethyl-N1-benzyl-N2-(3,3-diphenylpropyl)-ethylenediamine dimaleate] | 4.6
